ChEMBL document CHEMBL1800021, “Antineoplastic activity of the thiazolo[5,4-b]quinoline derivative D3CLP in K-562 cells is mediated through effector caspases activation” (Eur J Med Chem, 2011)
Calls of active or inactive are those of the source. The rule behind the calls is not given here.

What was measured:
K562 [1] = assay: Induction of cell cycle arrest in human K562 cells assessed as accumulation at G2/M phase at 0.25 uM after 6 hrs by propidium iodide staining-based FACS analysis; format: functional
K562 [2] = assay: Induction of apoptosis in human K562 cells assessed as chromatin condensation at 0.25 uM after 24 to 48 hrs by TUNEL assay; format: functional, cell-based
K562 [3] = assay: Induction of apoptosis in human K562 cells assessed as appearance of apoptotic bodies at 0.25 uM after 24 to 48 hrs by TUNEL assay; format: functional, cell-based
K562 [4] = assay: Induction of cell cycle arrest in human K562 cells assessed as complete arrest at G2/M phase at 0.25 uM after 12 hrs by propidium iodide staining-based FACS analysis; format: functional
K562 [5] = assay: Induction of apoptosis in human K562 cells assessed as chromatin condensation at 7.8 uM after 12 to 24 hrs by TUNEL assay; format: functional, cell-based
K562 [6] = assay: Induction of apoptosis in human K562 cells assessed as effector caspases activity using Ac-DEVD-AMC as substrate after 48 hrs by fluorimetry; format: functional, cell-based
K562 [7] = assay: Induction of apoptosis in human K562 cells assessed as subdiploid peak at 7.8 uM after 12 to 24 hrs by propidium iodide staining-based FACS analysis; format: functional, cell-based
K562 [8] = assay: Induction of apoptosis in human K562 cells assessed as increase in effector caspases activity using Ac-DEVD-AMC as substrate after 3 to 24 hrs by fluorimetry; format: functional, cell-based
K562 [9] = assay: Cell cycle arrest in human K562 cells assessed as accumulation at G2/M phase at 7.8 uM after 6 hrs by propidium iodide staining-based FACS analysis; format: functional
K562 [10] = assay: Cytotoxicity against human K562 cells after 48 hrs by modified MTT assay; format: functional, cell-based; details: K562, 48 h
[11] = Cytotoxicity against human PMBC after 48 hrs by modified MTT assay
K562 [12] = assay: Induction of apoptosis in human K562 cells assessed as DNA fragmentation at 7.8 uM after 12 to 24 hrs by TUNEL assay; format: functional, cell-based
K562 [13] = assay: Ratio of IC50 for human PMBC to IC50 for human K562 cells

Structure (SMILES) | Activity (K562 [1]) | Activity (K562 [2]) | Activity (K562 [3]) | Activity (K562 [4]) | Activity (K562 [5]) | Activity (K562 [6]) | Activity (K562 [7]) | Activity (K562 [8]) | Activity (K562 [9]) | IC50 (K562 [10]) [µM] | IC50 [11] [µM] | Activity (K562 [12]) | Ratio IC50 (K562 [13])
CC(=O)O[C@H]1C(=O)[C@@]2(C)[C@H]([C@H](OC(=O)c3ccccc3)[C@]3(O)C[C@H](OC(=O)[C@H](O)[C@@H](NC(=O)c4ccccc4)c4ccccc4)C(C)=C1C3(C)C)[C@]1(OC(C)=O)CO[C@@H]1C[C@@H]2O | Active | Active | Active | Active |  |  |  |  |  |  |  |  | 
CCN(CC)CCCNc1nc2c(Nc3cccc(Cl)c3)c3ccccc3nc2s1 |  |  |  |  | Active | inactive | Active | Active | Active | 7.82 | 28.7 | Active | 4
